Source: patent US20060040884A1, “Antisense oligonucleotides directed to genes regulated by trapoxin-induced HDAC inhibition” (priority 2001, published 2006)
“And” between values parts separate entries of the source, which are not always exact repeats. Equal values may be shown once. Marks after values point to notes of the source that are not given here. Square brackets hold non-standard residues; d marks the D form. Peptide text beside a SMILES is read from it. ξ: configuration not given here. Aoe(9ξ) = N[C@@H](CCCCCC(=O)C1CO1)C(=O)O; dPip = O=C(O)[C@H]1CCCCN1

Test system: H1299 cells
Test: Microarray expression profiling of TPX- vs DMSO-treated H1299 cells (Affymetrix HU6800 and Incyte UniGem V arrays)
Type: cell-based, human
Conditions: 30 nM vs DMSO
Description: Cell Culture and Drug Treatments. […] H1299 cells at 60 to 80% confluence are treated with 30 nM TPX dissolved in dimethyl sulphoxide for a final concentration of 0.1% Me2SO in cell culture medium or 0.1% Me2SO for 0, 6, 12, and 18 h.
Incyte cDNA arrays. H1299 cells are treated with 30 nM TPX dissolved in Me2SO or Me2SO for 0, 6, 12 and 18 h. Final Me2SO concentrations were 0.1% in cell culture medium. Total RNA is extracted using TRIZOL reagent (Life Technologies, Rockville, Md.) and purified using RNAeasy reagents (Qiagen, Valencia Calif.). Poly (A)^+ RNA (mRNA) is prepared from total RNA using Oligotex columns (Qiagen, Valencia, Calif.) and the procedure is repeated twice to minimize contamination with ribosomal RNA. The mRNA concentrations are determined using RiboGreen RNA Quantitation kit (Molecular Probes, Eugene, Oreg.) and equal amounts of mRNA from each sample is used in labeling reactions that are performed by Synteni Division of Incyte Genomics, Inc. (Palo Alto, Calif.). Complementary DNAs are prepared by […] and labeled with Cy3-deoxyuridine triphosphate (Cy3) or Cy5-deoxyuridine triphosphate (Cy5) fluorescent nucleotides. cDNA samples from cells that are treated with Me2SO are labeled with Cy3 and the TPX-treated samples are labeled with Cy5. Replicates were labeled with reversed fluorescent labels to accommodate biases attributable to labeling. The Cy3 and Cy5 samples from each time point are combined and hybridized to UniGem […] arrays (Iyer, V. R., et al., (1999) Science 283, 83-87). This array contains cDNAs that represent approximately 7000 human genes.
Affymetrix oligonucleotide arrays. Total RNA and Poly (A)^+ RNA is isolated from TPX or Me2SO-treated H1299 cells essentially as it was for Incyte cDNA arrays. Total RNA is isolated from p21^waf1-10 cells that are grown in the presence or in the absence of tetracycline for 6, 12 and 48 h. 1st strand cDNA synthesis is performed using Superscript Choice System (Life Technologies) and a T7prFB-t30 primer, 5′-AAACGACGGCACA […]-t30-3′ (SEQ ID NO 1). Biotinylated complementary […] is made using the T7 Megascript system (Ambion, Austin, Tex.), substituting NTP labeling-mix containing biotinylated CTP and UTP. The labeled, purified cDNA is fragmented into <50 bp pieces at 95° C. in MgCl2 buffer to-increase the efficiency of hybridization to 20-mer oligos on the arrays. These labeled fragments are hybridized to HU6800 arrays (Affymetrix, Santa Clara, Calif.) as described previously (Lockhart, D. J., et al., (1996) Nat. Biotechnol. 14, 1675-1680; Alon, U. et al., (1999) Proc. Natl. Acad. Sci. U.S.A. 96, 6745-6750). This array represents approximately 7000 human genes. Briefly, samples are hybridized for 16 h at 45° C. with constant rotation at 60 rpm. The arrays are washed and stained using an Affymetrix fluidics station. The stain included streptavidin-phycoerythrin (10 μg/ml; Molecular Probes, Eugene, Oreg.) and biotinylated goat anti-streptavidin (3 μg/ml; Vector Laboratories, Burlingame, Calif.).
Imaging and Data Analysis. Affymetrix arrays are scanned with a HP argon-ion laser confocal microscope, with a 488 nm […] and detection at 570 nm. Affymetrix fold changes are calculated using GeneChip 3.3 software (Affymetrix). Incyte Pharmaceutical Inc. uses a laser confocal microscope to determine the fluorescence intensities from Incyte cDNA arrays. The fluorescent images (Cy3 and Cy5) from the Incyte cDNA arrays are normalized to total fluorescence from each channel for all genes for labeling efficiency differences and considered the normalized data is used for calculation of the gene expression ratios.

O=C(CCCCC[C@@H]1NC(=O)[C@H]2CCCCN2C(=O)[C@H](Cc2ccccc2)NC(=O)[C@H](Cc2ccccc2)NC1=O)C1CO1 (stereo partly drawn) [TPX, Trapoxin A] (cyclo(FF[dPip][Aoe(9ξ)]))
Fold change, AB011146 KIAA0574, similar to an RNA binding protein (6 h): NC (<2 fold change in expression level (NC)) | Fold change, AF012086 RAN-binding protein 2-like (6 h): NC (<2 fold change in expression level (NC)) | Fold change, AF052578 RAN [RNA processing] (6 h): NC (<2 fold change in expression level (NC)) | Fold change, AF052578 RAN [Small GTP-ases] (6 h): NC (<2 fold change in expression level (NC)) | Fold change, AF109161 p35srj [Stress] (6 h): NC (<2 fold change in expression level (NC)) | Fold change, AF109161 p35srj [Transformation and TKRs] (6 h): NC (<2 fold change in expression level (NC)) | Fold change, AL047358 Insulin-induced gene 1 (6 h): 2.2 fold and 2.8 fold | Fold change, AL047358 Spermidine/spermine N1-acetyltransferase (6 h): NC (<2 fold change in expression level (NC)) | Fold change, AL720570 Hepatoma-derived growth factor (6 h): NC (<2 fold change in expression level (NC)) | Fold change, D00596 Thymidylate synthetase (6 h): NC (<2 fold change in expression level (NC)) | Fold change, D16105 Leukocyte receptor tyrosine kinase (6 h): NC (<2 fold change in expression level (NC)) | Fold change, D50920 KIAA0130, thyroid receptor interacting protein (6 h): NC (<2 fold change in expression level (NC)) | Fold change, D85429 Hsp 40 (6 h): 4.0^8 fold and 3.9^8 fold | Fold change, J03909 γ-IFN-inducible, IP-30 (6 h): 3.9^5 fold and 3.9^2 fold | Fold change, L03840 Fibroblast growth factor receptor (6 h): 2.4* fold and 2.7* fold | Fold change, L16991 Thymidylate kinase (6 h): NC (<2 fold change in expression level (NC)) | Fold change, L20010 Host cell factor (6 h): NC (<2 fold change in expression level (NC)) | Fold change, L32976 Mixed lineage kinase-3 (6 h): NC (<2 fold change in expression level (NC)) | Fold change, M12174 RhoB (6 h): 6.2^5 fold and 9.0^8 fold | Fold change, M55153 Transglutaminase 2 (6 h): NC (<2 fold change in expression level (NC)) | Fold change, M58286 TNF Receptor (6 h): NC (<2 fold change in expression level (NC)) | Fold change, M59828 Hsp 70 (6 h): 3.5 fold and 4.1 fold | Fold change, M76125 Tyrosine kinase receptor (TKR) axl (6 h): NC (<2 fold change in expression level (NC)) | Fold change, M80244 Human E16 (6 h): NC (<2 fold change in expression level (NC)) | Fold change, M80899 AHNAK nucleoprotein/desmoykin (6 h): NC (<2 fold change in expression level (NC)) | Fold change, M86406 Actinin (6 h): NC (<2 fold change in expression level (NC)) | Fold change, N33982 c-Yes-associated protein (6 h): NC (<2 fold change in expression level (NC)) | Fold change, NM006603 Stromal antigen 2 (6 h): NC (<2 fold change in expression level (NC)) | Fold change, U03057 Actin-bundling protein (6 h): NC (<2 fold change in expression level (NC)) | Fold change, U09578 MAKAP kinase (3 pk) (6 h): NC (<2 fold change in expression level (NC)) | Fold change, U09579 p21waf1 (1st line) (6 h): 6.1* fold and 6.6* fold | Fold change, U09579 p21waf1 (2nd line) (6 h): 2.3 fold and 3.3 fold | Fold change, U09937 Upa receptor (UpaR) (1st line) (6 h): NC (<2 fold change in expression level (NC)) | Fold change, U14750 Connective tissue growth factor (6 h): 3.1 fold and 3.6 fold | Fold change, U15782 Cleavage stimulation factor 3 (6 h): NC (<2 fold change in expression level (NC)) | Fold change, U25804 Caspase-4 (6 h): NC (<2 fold change in expression level (NC)) | Fold change, U28749 HMGI-C (2nd line) (6 h): NC (<2 fold change in expression level (NC)) | Fold change, U28749 High mobility group phosphoprotein I-C (HMGI-C) (1st line) (6 h): NC (<2 fold change in expression level (NC)) | Fold change, U32519 GAP SH3 binding protein (6 h): 5.7^8 fold and 5.8^8 fold | Fold change, U35113 Metastasis-associated 1, MTA-1 [Metastasis and invasion] (6 h): NC (<2 fold change in expression level (NC)) | Fold change, U35113 Metastasis-associated protein 1 (MTA-1) [Chromatin remodeling] (6 h): NC (<2 fold change in expression level (NC)) | Fold change, U48795 Cathelicidin antimicrobial peptide (6 h): NC (<2 fold change in expression level (NC)) | Fold change, U56833 VBP-1 (6 h): NC (<2 fold change in expression level (NC)) | Fold change, U77413 O-linked-N-acetylglucosamine transferase (6 h): NC (<2 fold change in expression level (NC)) | Fold change, U84214 Defender against cell death 1 (6 h): NC (<2 fold change in expression level (NC)) | Fold change, X03473 Histone H1 (0) [Chromatin remodeling] (6 h): 6.8^4 fold and 10.8^8 fold | Fold change, X03473 Histone H1 (0) [Differentiation] (6 h): 6.8^4 fold and 10.8^8 fold | Fold change, X04429 Plasminogen activator inhibitor 1 (6 h): NC (<2 fold change in expression level (NC)) | Fold change, X16396 NAD-dependent methylene teterahydrofolate dehydrogenase-methylenyltetrahydrofolate cyclohydrolase (6 h): NC (<2 fold change in expression level (NC)) | Fold change, X16665 Homeobox B2 (Hoxb2) (6 h): NC (<2 fold change in expression level (NC)) | Fold change, X37546 Inhibitor of apoptisis homolog B (6 h): NC (<2 fold change in expression level (NC)) | Fold change, X53586 Integrin α-6 (6 h): NC (<2 fold change in expression level (NC)) | Fold change, X55740 5′-nucleotidase (6 h): NC (<2 fold change in expression level (NC)) | Fold change, X59798 Cyclin D1 (6 h): NC (<2 fold change in expression level (NC)) | Fold change, X66029 TKR axl (6 h): NC (<2 fold change in expression level (NC)) | Fold change, X71874 MECL-1 (6 h): NC (<2 fold change in expression level (NC)) | Fold change, X78687 G9 sialidase (6 h): 3.0^8 fold and 3.4^8 fold | Fold change, X89713 Death-associated protein-5 (6 h): NC (<2 fold change in expression level (NC)) | Fold change, A1581499 Apoptosis inhibitor 2 (12 h): NC (<2 fold change in expression level (NC)) | Fold change, AB011146 KIAA0574, similar to an RNA binding protein (12 h): 2.7 fold | Fold change, AF012086 RAN-binding protein 2-like (12 h): 9.1 fold and 8.3 fold | Fold change, AF052578 RAN [RNA processing] (12 h): NC (<2 fold change in expression level (NC)) | Fold change, AF052578 RAN [Small GTP-ases] (12 h): 2.9 fold and 2.0 fold | Fold change, AF109161 p35srj [Stress] (12 h): 3.5 fold and 2.4 fold | Fold change, AF109161 p35srj [Transformation and TKRs] (12 h): 3.5 fold and 2.4 fold | Fold change, AL047358 Insulin-induced gene 1 (12 h): 7.9 fold and 6.4 fold | Fold change, AL047358 Spermidine/spermine N1-acetyltransferase (12 h): 3.8 fold and 2.3 fold | Fold change, AL720570 Hepatoma-derived growth factor (12 h): NC (<2 fold change in expression level (NC)) | Fold change, AW072424 5′-nucleotidase (12 h): −3.7 fold | Fold change, D00596 Thymidylate synthetase (12 h): NC (<2 fold change in expression level (NC)) | Fold change, D16105 Leukocyte receptor tyrosine kinase (12 h): NC (<2 fold change in expression level (NC)) | Fold change, D50920 KIAA0130, thyroid receptor interacting protein (12 h): NC (<2 fold change in expression level (NC))
